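Interpolation was linear, between the two tested concentrations surrounding the appropriate level; five concentrations were tested over 48 hours in 96-well plates. The concentration for 50% growth inhibition is given as GI50.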 Activity calls are given as the source filed them. No stated cut-off is given here; in the data, active = GI50 up to about 1.1 µM and inactive = higher.
Experiments:
Experiment in all cases: growth of human tumour cells (NCI), 48 h
XF498 = test system: XF498
SNB-78 = test system: SNB-78
DLD-1 = test system: DLD-1
HOP-18 = test system: HOP-18
RXF 631 = test system: RXF 631
DMS-273 = test system: DMS-273
KM-20L2 = test system: KM-20L2
LXFL 529 = test system: LXFL 529
DMS-114 = test system: DMS-114

Measured: GI50

O=C(CC(=O)Nc1cccc(Cl)c1)NNCC(=O)Nc1nnc(-c2ccccc2)s1
inactive: XF498 17.7 µM | SNB-78 97.9 µM | DLD-1 58.6 µM | HOP-18 3.62 µM | RXF 631 > 100 µM | DMS-273 38.4 µM | KM-20L2 > 100 µM | LXFL 529 41.3 µM | DMS-114 24.4 µM

Reference: ChEMBL document CHEMBL1201862, “PubChem BioAssay data set” (2004)
